Laboratory results as given in patent US4740233A, “Substituted 1,2,4-triazolo[1,5-a]-pyrimidine-2-sulfonamides and compositions and methods of controlling undesired vegetation and suppressing the nitrification of ammonium nitrogen in soil” (The Dow Chemical Company, priority 1986, dated 1988).

Columns and labels:
cotton [1] = test: Postemergent control of plant species; format: in vivo, Gossypium spp.; details: Gossypium hirsutum, post-emergence, 336 h, read-out: percent postemergent control
Procedure, shortened: (§1)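 Compounds in acetone mixed 1:1 with water containing 0.1% surfactant, sprayed postemergence on greenhouse plants at the 2-4 leaf stage. Growth reduction versus untreated plants of the same species scored after about two weeks.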

rape [2] = test: Postemergent control of plant species; format: in vivo, Brassica napus; details: Brassica napus, post-emergence, 336 h, read-out: percent postemergent control
Procedure, shortened: as §1

soybean [3] = test: Postemergent control of plant species; format: in vivo, Glycine max.; details: Glycine max, post-emergence, 336 h, read-out: percent postemergent control
Procedure, shortened: as §1

sugar beet [4] = test: Postemergent control of plant species; format: in vivo, Beta saccharifera; details: Beta vulgaris, post-emergence, 336 h, read-out: percent postemergent control
Procedure, shortened: as §1

cocklebur = test: Postemergent control of plant species; format: in vivo, Xanthium spp.; details: Xanthium strumarium, post-emergence, 336 h, read-out: percent postemergent control
Procedure, shortened: as §1

jimsonweed [5] = test: Postemergent control of plant species; format: in vivo, Datura stramonium; details: Datura stramonium, post-emergence, 336 h, read-out: percent postemergent control
Procedure, shortened: as §1

annual morning glory [6] = test: Postemergent control of plant species; format: in vivo, Ipomoea spp.; details: Ipomoea, post-emergence, 336 h, read-out: percent postemergent control
Procedure, shortened: as §1

pigweed = test: Postemergent control of plant species; format: in vivo, Amaranthus spp.; details: Amaranthus retroflexus, post-emergence, 336 h, read-out: percent postemergent control
Procedure, shortened: as §1

velvetleaf [7] = test: Postemergent control of plant species; format: in vivo, Abutilon theophrasti; details: Abutilon theophrasti, post-emergence, 336 h, read-out: percent postemergent control
Procedure, shortened: as §1

corn [8] = test: Postemergent control of plant species; format: in vivo, Zea mays; details: Zea mays, post-emergence, 336 h, read-out: percent postemergent control
Procedure, shortened: as §1

rice [9] = test: Postemergent control of plant species; format: in vivo, Oryza sativa; details: Oryza sativa, post-emergence, 336 h, read-out: percent postemergent control
Procedure, shortened: as §1

sorghum = test: Postemergent control of plant species; format: in vivo, Sorghum vulgare; details: Sorghum, post-emergence, 336 h, read-out: percent postemergent control
Procedure, shortened: as §1

wheat [10] = test: Postemergent control of plant species; format: in vivo, Triticum aestivum; details: Triticum aestivum, post-emergence, 336 h, read-out: percent postemergent control
Procedure, shortened: as §1

barnyardgrass [11] = test: Postemergent control of plant species; format: in vivo, Echinochloa crusgalli; details: Echinochloa crus-galli, post-emergence, 336 h, read-out: percent postemergent control
Procedure, shortened: as §1

crabgrass = test: Postemergent control of plant species; format: in vivo, Digitaria spp.; details: Digitaria sanguinalis, post-emergence, 336 h, read-out: percent postemergent control
Procedure, shortened: as §1

yellow foxtail [12] = test: Postemergent control of plant species; format: in vivo, Setaria lutescens; details: Setaria, post-emergence, 336 h, read-out: percent postemergent control
Procedure, shortened: as §1

johnson grass [13] = test: Postemergent control of plant species; format: in vivo, Sorghum halepense; details: Sorghum halepense, post-emergence, 336 h, read-out: percent postemergent control
Procedure, shortened: as §1

wild oats [14] = test: Postemergent control of plant species; format: in vivo, Avena fatua; details: Avena fatua, post-emergence, 336 h, read-out: percent postemergent control
Procedure, shortened: as §1

yellow nutsedge [15] = test: Postemergent control of plant species; format: in vivo, Cyperus esculentus; details: Cyperus, post-emergence, 336 h, read-out: percent postemergent control
Procedure, shortened: as §1

[16] = tested on: nitrification of ammonium nitrogen; test: Suppression of nitrification of ammonium nitrogen in soil; details: 27° C.
Procedure, shortened: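 Soil (20 g) moistened to its 1/3 bar tension value, mixed with test chemical and incubated sealed for two weeks at 27° C. Nitrate extracted with ammonium sulfate solution and measured by nitrate-specific ion electrode; value given as % NH4-N remaining.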

[17] = tested on: annual sugar beet variety (SLC03); test: Plant growth regulator activity, preemergence; format: in vivo; details: Beta vulgaris, pre-emergence; 6-7 weeks; read-out: Bolting Inhibition (preemergence), concentration with observed effect
Source text: (§2) Using a regular biennial variety, even a bolting-susceptible variety would require a cold treatment of around 10-16 weeks plus a hormone treatement in conjunction with specific light intensities. Thus, for a screening organism, we selected one which would consistently produce bolting on a regular schedule. The screen is run with an annual sugar beet variety (SLC03) provided by Dr. Richard J. Hecker, Fort Collins, Colo. This variety is an inbred which bolts in the 6- to 8-leaf stage without any need for vernalization. This allows the screen to be run entirely in the greenhouse with all 110 chemical compounds tested on one tray. The sugarbeets are grown in 3×3 inch square pots in a greenhouse sandy loam potting mix. The sugarbeets are sprayed with test compounds when they are 2 to 3 weeks old (2 true leaves). The compounds are dissolved in acetone and diluted with water containing Tween 20 as a wetting agent. The concentration of acetone in the final spray is 20% and the concentration of Tween 20 is 0.05 percent. The plants are examined for the appearance of a bolt 4 weeks after spraying.
Preemergence tests are conducted by spraying formulated chemical on seeds placed on potting soil. The sprayed seeds are then covered with 1/4 inch of potting soil and the pots are watered. Bolting is evaluated 6-7 weeks after the initiation of the test. At this time untreated plants have a vigorous bolting stem with visible flowers.

cotton [18] = test: Preemergent control of plant species; format: in vivo, Gossypium spp.; details: Gossypium hirsutum, pre-emergence, 336 h; 0.25 lb/acre; read-out: percent preemergent control
Procedure, shortened: (§3)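 Seeds sown in agricultural soil in greenhouse beds, then aqueous-emulsion compositions applied uniformly to the bed surface at listed rates. Beds kept two weeks under greenhouse growth conditions with watering. Control expressed as growth reduction versus water-treated beds of the same species.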

rape [19] = test: Preemergent control of plant species; format: in vivo, Brassica napus; details: Brassica napus, pre-emergence, 336 h; 0.25 lb/acre; read-out: percent preemergent control
Procedure, shortened: as §3

soybean [20] = test: Preemergent control of plant species; format: in vivo, Glycine max.; details: Glycine max, pre-emergence, 336 h; 0.25 lb/acre; read-out: percent preemergent control
Procedure, shortened: as §3

sugar beet [21] = test: Preemergent control of plant species; format: in vivo, Beta saccharifera; details: Beta vulgaris, pre-emergence, 336 h; 0.25 lb/acre; read-out: percent preemergent control
Procedure, shortened: as §3

jimsonweed [22] = test: Preemergent control of plant species; format: in vivo, Datura stramonium; details: Datura stramonium, pre-emergence, 336 h; 0.25 lb/acre; read-out: percent preemergent control
Procedure, shortened: as §3

annual morning glory [23] = test: Preemergent control of plant species; format: in vivo, Ipomoea spp.; details: Ipomoea, pre-emergence, 336 h; 0.25 lb/acre; read-out: percent preemergent control
Procedure, shortened: as §3

velvetleaf [24] = test: Preemergent control of plant species; format: in vivo, Abutilon theophrasti; details: Abutilon theophrasti, pre-emergence, 336 h; 0.25 lb/acre; read-out: percent preemergent control
Procedure, shortened: as §3

corn [25] = test: Preemergent control of plant species; format: in vivo, Zea mays; details: Zea mays, pre-emergence, 336 h; 0.25 lb/acre; read-out: percent preemergent control
Procedure, shortened: as §3

rice [26] = test: Preemergent control of plant species; format: in vivo, Oryza sativa; details: Oryza sativa, pre-emergence, 336 h; 0.25 lb/acre; read-out: percent preemergent control
Procedure, shortened: as §3

wheat [27] = test: Preemergent control of plant species; format: in vivo, Triticum aestivum; details: Triticum aestivum, pre-emergence, 336 h; 0.25 lb/acre; read-out: percent preemergent control
Procedure, shortened: as §3

barnyardgrass [28] = test: Preemergent control of plant species; format: in vivo, Echinochloa crusgalli; details: Echinochloa crus-galli, pre-emergence, 336 h; 0.25 lb/acre; read-out: percent preemergent control
Procedure, shortened: as §3

johnson grass [29] = test: Preemergent control of plant species; format: in vivo, Sorghum halepense; details: Sorghum halepense, pre-emergence, 336 h; 0.25 lb/acre; read-out: percent preemergent control
Procedure, shortened: as §3

wild oats [30] = test: Preemergent control of plant species; format: in vivo; details: Avena fatua, pre-emergence, 336 h; 0.25 lb/acre; read-out: percent preemergent control
Procedure, shortened: as §3

yellow foxtail [31] = test: Preemergent control of plant species; format: in vivo, Setaria lutescens; details: Setaria, pre-emergence, 336 h; 0.25 lb/acre; read-out: percent preemergent control
Procedure, shortened: as §3

yellow nutsedge [32] = test: Preemergent control of plant species; format: in vivo, Cyperus esculentus; details: Cyperus, pre-emergence, 336 h; 0.25 lb/acre; read-out: percent preemergent control
Procedure, shortened: as §3

[33] = tested on: annual sugar beet variety (SLC03); test: Plant growth regulator activity, postemergence; format: in vivo; details: Beta vulgaris, post-emergence, 672 h, 4 weeks after spraying; read-out: Bolting Inhibition (postemergence), concentration with observed effect
Source text: as §2

Question: How did the plant injury at 500 ppm (cotton [1]) turn out when `COc1cccc(C=NO)c1NS(=O)(=O)c1nc2nc(C)cc(C)n2n1` [Compound 71] was run?
Answer: The plant injury at 500 ppm was 75%.

Question: And the plant injury at 500 ppm (rape [2])?
Answer: The plant injury at 500 ppm was 70%.

Question: What about the plant injury at 500 ppm (soybean [3]) of the same compound?
Answer: The plant injury at 500 ppm was 35%.

Question: And the plant injury at 500 ppm (sugar beet [4])?
Answer: Its plant injury at 500 ppm is 70%.

Question: And the pest or weed control at 500 ppm (cocklebur)?
Answer: Its pest or weed control at 500 ppm is 0%.

Question: What about the pest or weed control at 500 ppm (jimsonweed [5]) of the same compound?
Answer: The pest or weed control at 500 ppm was 60%.

Question: And the pest or weed control at 500 ppm (annual morning glory [6])?
Answer: Its pest or weed control at 500 ppm is 0%.

Question: And the pest or weed control at 500 ppm (pigweed)?
Answer: Its pest or weed control at 500 ppm is 0%.

Question: What about the pest or weed control at 500 ppm (velvetleaf [7]) of the same compound?
Answer: Its pest or weed control at 500 ppm is 70%.

Question: What about the plant injury at 500 ppm (corn [8]) of the same compound?
Answer: The plant injury at 500 ppm was 0%.

Question: What about the plant injury at 500 ppm (rice [9]) of the same compound?
Answer: Its plant injury at 500 ppm is 0%.

Question: What about the plant injury at 500 ppm (sorghum) of the same compound?
Answer: The plant injury at 500 ppm was 0%.

Question: What about the plant injury at 500 ppm (wheat [10]) of the same compound?
Answer: Its plant injury at 500 ppm is 0%.

Question: What about the pest or weed control at 500 ppm (barnyardgrass [11]) of the same compound?
Answer: Its pest or weed control at 500 ppm is 0%.

Question: What about the pest or weed control at 500 ppm (crabgrass) of the same compound?
Answer: The pest or weed control at 500 ppm was 20%.

Question: What about the pest or weed control at 500 ppm (yellow foxtail [12]) of the same compound?
Answer: Its pest or weed control at 500 ppm is 0%.

Question: What about the pest or weed control at 500 ppm (johnson grass [13]) of the same compound?
Answer: The pest or weed control at 500 ppm was 0%.

Question: What about the pest or weed control at 500 ppm (wild oats [14]) of the same compound?
Answer: The pest or weed control at 500 ppm was 0%.

Question: What about the pest or weed control at 500 ppm (yellow nutsedge [15]) of the same compound?
Answer: The pest or weed control at 500 ppm was 0%.

Question: And the “% NH4-N Remaining After 2 Weeks Incubation” value ([16]; 0.06 ppm)?
Answer: Its value is 35%.

Question: And the “% NH4-N Remaining After 2 Weeks Incubation” value ([16]; 0.25 ppm)?
Answer: Its value is 49%.

Question: What about the “% NH4-N Remaining After 2 Weeks Incubation” value ([16]; 1 ppm) of the same compound?
Answer: The value was 84%.

Question: What about the “% NH4-N Remaining After 2 Weeks Incubation” value ([16]; 4 ppm) of the same compound?
Answer: Its value is 90%.

Question: And the minimal effective concentration [17]?
Answer: The minimal effective concentration was 400 µg/mL.

Question: Which results are given for `Cc1cc(C)n2nc(S(=O)(=O)Nc3c(C)ccc(Cl)c3C)nc2n1` [Compound 65]?
Answer: plant injury at 280.212 g/ha (cotton [18]): 0%; plant injury at 280.212 g/ha (rape [19]): 20%; plant injury at 280.212 g/ha (soybean [20]): 100%; plant injury at 280.212 g/ha (sugar beet [21]): 100%; pest or weed control at 280.212 g/ha (jimsonweed [22]): 90%; pest or weed control at 280.212 g/ha (annual morning glory [23]): 50%; pest or weed control at 280.212 g/ha (velvetleaf [24]): 20%; plant injury at 280.212 g/ha (corn [25]): 0%; plant injury at 280.212 g/ha (rice [26]): 30%; plant injury at 280.212 g/ha (wheat [27]): 0%; pest or weed control at 280.212 g/ha (barnyardgrass [28]): 70%; pest or weed control at 280.212 g/ha (johnson grass [29]): 95%; pest or weed control at 280.212 g/ha (wild oats [30]): 0%; pest or weed control at 280.212 g/ha (yellow foxtail [31]): 95%; pest or weed control at 280.212 g/ha (yellow nutsedge [32]): 95%; % NH4-N Remaining After 2 Weeks Incubation ([16]; 0.06 ppm): 5%; % NH4-N Remaining After 2 Weeks Incubation ([16]; 0.25 ppm): 52%; % NH4-N Remaining After 2 Weeks Incubation ([16]; 1 ppm): 65%; % NH4-N Remaining After 2 Weeks Incubation ([16]; 4 ppm): 85%; minimal effective concentration [33]: 12 µg/mL

Question: `Cc1cc(C)n2nc(S(=O)(=O)Nc3c(F)cccc3Oc3ccc(C(F)(F)F)cc3Cl)nc2n1` [Compound 98] was tested. Which “% NH4-N Remaining After 2 Weeks Incubation” value ([16]; 0.06 ppm) did it give?
Answer: Its value is 0%.

Question: And the “% NH4-N Remaining After 2 Weeks Incubation” value ([16]; 0.25 ppm)?
Answer: The value was 25%.

Question: What about the “% NH4-N Remaining After 2 Weeks Incubation” value ([16]; 1 ppm) of the same compound?
Answer: The value was 0%.

Question: What about the “% NH4-N Remaining After 2 Weeks Incubation” value ([16]; 4 ppm) of the same compound?
Answer: The value was 37%.

Question: What about the minimal effective concentration [33] of the same compound?
Answer: Its minimal effective concentration is 400 µg/mL.
